Measured values published in PubChem BioAssay (NCI).
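48-hour exposure; five concentrations; linearly interpolated endpoints. The concentration for full growth arrest is given as TGI.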

How the values were obtained:
Assay in all cases: NCI-60 cell line screen, 48 h
SW-620 colon = system: SW-620 colon
A498 renal = system: A498 renal
IGROV1 ovarian = system: IGROV1 ovarian
SK-OV-3 ovarian = system: SK-OV-3 ovarian
TK-10 renal = system: TK-10 renal
A549 NSCLC = system: A549 NSCLC
HCC-2998 colon = system: HCC-2998 colon
HOP-92 NSCLC = system: HOP-92 NSCLC
CAKI-1 renal = system: CAKI-1 renal
MCF7 breast = system: MCF7 breast

| Structure (SMILES) | TGI (SW-620 colon) | TGI (A498 renal) | TGI (IGROV1 ovarian) | TGI (SK-OV-3 ovarian) | TGI (TK-10 renal) | TGI (A549 NSCLC) | TGI (HCC-2998 colon) | TGI (HOP-92 NSCLC) | TGI (CAKI-1 renal) | TGI (MCF7 breast) |
| --- | --- | --- | --- | --- | --- | --- | --- | --- | --- | --- |
| CN(C)CCCNC(=O)N/N=C/c1ccccc1 | > 100 µM | > 100 µM | > 100 µM | > 100 µM | > 100 µM | > 100 µM |  |  |  |  |
| Cc1cccc2c1CC(Cc1ccccc1C(=O)O)C2=O (stereo unspecified) | > 100 µM |  | > 100 µM | > 100 µM | > 100 µM | > 100 µM | > 100 µM | > 100 µM | > 100 µM | > 100 µM |
| CCOC(=O)c1c(SCc2cc(=O)[nH]c(=O)[nH]2)n(-c2ccccc2)c(=S)n(-c2ccccc2)c1=O | > 100 µM | > 100 µM | > 100 µM |  | > 100 µM | > 100 µM | > 100 µM |  | > 100 µM | > 100 µM |
| CCOC(=O)N1CCN(c2c(N)nc(C)[nH]c2=O)CC1 | > 100 µM | > 100 µM |  |  | > 100 µM | > 100 µM | > 100 µM | > 100 µM |  | > 100 µM |
| Cc1cc(S(=O)(=O)N=C2Nc3cccc4cccc(c34)N2)c(S)cc1Cl | > 100 µM |  | > 100 µM |  |  | > 100 µM | > 100 µM | > 100 µM | > 100 µM | > 100 µM |
| O=[N+]([O-])c1ccc(-c2csc(=[N+]3CCCCC3)s2)cc1 | > 100 µM | 63.6 µM | > 100 µM | > 100 µM | > 100 µM | > 100 µM | > 100 µM | 64.9 µM | > 100 µM |  |
| CNC(=O)CN(CC(=O)O)C(=O)NC | > 100 µM | > 100 µM | > 100 µM | > 100 µM | > 100 µM | > 100 µM | > 100 µM | > 100 µM | > 100 µM |  |
| CC(=O)Oc1ccc2c(-c3ccccc3)c(Oc3ccc(Cl)cc3)c(=O)oc2c1 | 39.4 µM | 30.8 µM | 29.4 µM |  | 26.3 µM | 27.6 µM | 19.7 µM | 22.4 µM | 32.3 µM | 39.8 µM |
| CN1C2=Nc3n(c4ccccc4[n+]3C)CN2c2ccccc21 | > 100 µM |  | > 100 µM | > 100 µM | > 100 µM | > 100 µM |  | 81.1 µM | > 100 µM | 33.6 µM |
| CC(=O)/C(=N\Nc1ccc(Cl)cc1)C(C)=Nc1ccc(C)cc1 | > 100 µM | 85.2 µM | > 100 µM | > 100 µM | > 100 µM | > 100 µM |  | 37.4 µM | > 100 µM |  |
| CO[P@@]1(=O)O[C@@H](c2ccccc2)[C@H](O)[C@]1(O)c1ccccc1 | > 100 µM | > 100 µM | > 100 µM | > 100 µM | > 100 µM | > 100 µM |  | > 100 µM | > 100 µM | > 100 µM |
| Oc1ccccc1/C=N/N1C(=S)N(C23CC4CC(CC(C4)C2)C3)C(=Nc2ccccc2)C1=Nc1ccccc1 | > 100 µM |  | > 100 µM | > 100 µM | > 100 µM | > 100 µM | > 100 µM | > 100 µM | > 100 µM |  |
| CCCCNC(=O)Cn1c2ccc(Br)cc2c2nc3ccccc3nc21 | > 100 µM | > 100 µM | > 100 µM |  | > 100 µM | > 100 µM |  | > 100 µM | > 100 µM |  |
| O=C(NC(C(F)(F)F)(C(F)(F)F)P(=O)(Cc1ccccc1)Cc1ccccc1)C(C(F)(F)F)C(F)(F)F | 92.7 µM | 32.3 µM | 36.1 µM | > 100 µM | 39.1 µM | 68.3 µM | 49.8 µM |  | 97.1 µM | 31.8 µM |
| C/C(=C\CSCC(N)C(=O)O)CC/C=C(\C)CNc1ccccc1 (stereo unspecified) | > 100 µM |  | > 100 µM | > 100 µM | > 100 µM | > 100 µM | > 100 µM |  | > 100 µM | > 100 µM |
| CCOC(=O)/C=C/CCC(C)(C)COC(C)=O | > 10 µM |  | > 10 µM | > 10 µM | > 10 µM | > 10 µM | > 10 µM | > 10 µM | > 10 µM | > 10 µM |
| O=C1Nc2cc(F)ccc2C1=O | > 100 µM | > 100 µM | > 100 µM | > 100 µM | > 100 µM | > 100 µM | > 100 µM | > 100 µM | > 100 µM |  |
| CC1(C)OCC(C2OC(C)(C)OC2[C@H]2O[C@@]3(O)[C@H]4[C@H](C=CC[C@@H]42)[C@@H](OCc2ccccc2)[C@H](OCc2ccccc2)[C@H]3OCc2ccccc2)O1 (stereo partly specified) | > 100 µM | > 100 µM | > 100 µM | > 100 µM | > 100 µM | > 100 µM |  | > 100 µM | > 100 µM | > 100 µM |
| O=C1CSC(c2c[nH]c3ccccc23)N1c1ccc(Cl)cc1Cl (stereo unspecified) | > 100 µM |  | > 100 µM | > 100 µM | > 100 µM | > 100 µM | > 100 µM | > 100 µM |  | > 100 µM |
| NCCCCNCCCN1CCOC1=O | > 100 µM | > 100 µM | > 100 µM | > 100 µM | > 100 µM | > 100 µM | > 100 µM |  | > 100 µM | > 100 µM |
| Cc1cc(-c2cc(C(C)(C)C)c(O)c(C(C)(C)C)c2)c(C)cc1-c1cc(C(C)(C)C)c(O)c(C(C)(C)C)c1 | > 100 µM | 92.7 µM | > 100 µM | > 100 µM | > 100 µM | > 100 µM |  | 38.2 µM | > 100 µM | > 100 µM |
| C=CN(C=C)C(=O)Cn1cc(-c2ccccc2)nn1 | > 100 µM |  | > 100 µM |  | > 100 µM | > 100 µM | > 100 µM | > 100 µM | > 100 µM | > 100 µM |
| CCC1([N+](=O)[O-])CN(N=O)C1 | > 100 µM | > 100 µM | > 100 µM | > 100 µM | > 100 µM | > 100 µM |  | > 100 µM | > 100 µM | > 100 µM |
